Publication PMC9636434, “Discovery of small molecule agonists of the Relaxin Family Peptide Receptor 2” (Communications Biology, 2022)
“And” between values parts separate entries of the source, which are not always exact repeats. Equal entries are not always repeated. “Also recorded” adds a separate entry of the source.

Key:
mouse RXFP2 = target: T1, mouse RXFP2 (Mus musculus, UniProt Q91ZZ5); assay: CRE-luciferase reporter assay in HEK293T-CRE-Luc cells transiently transfected with mouse Rxfp2; format: cell-based
T1 construct: FLAG (N); expressed in transfected cells; host or cells: HEK293T-CRE-Luc (transient)
T1 sequence (Q91ZZ5 whole entry): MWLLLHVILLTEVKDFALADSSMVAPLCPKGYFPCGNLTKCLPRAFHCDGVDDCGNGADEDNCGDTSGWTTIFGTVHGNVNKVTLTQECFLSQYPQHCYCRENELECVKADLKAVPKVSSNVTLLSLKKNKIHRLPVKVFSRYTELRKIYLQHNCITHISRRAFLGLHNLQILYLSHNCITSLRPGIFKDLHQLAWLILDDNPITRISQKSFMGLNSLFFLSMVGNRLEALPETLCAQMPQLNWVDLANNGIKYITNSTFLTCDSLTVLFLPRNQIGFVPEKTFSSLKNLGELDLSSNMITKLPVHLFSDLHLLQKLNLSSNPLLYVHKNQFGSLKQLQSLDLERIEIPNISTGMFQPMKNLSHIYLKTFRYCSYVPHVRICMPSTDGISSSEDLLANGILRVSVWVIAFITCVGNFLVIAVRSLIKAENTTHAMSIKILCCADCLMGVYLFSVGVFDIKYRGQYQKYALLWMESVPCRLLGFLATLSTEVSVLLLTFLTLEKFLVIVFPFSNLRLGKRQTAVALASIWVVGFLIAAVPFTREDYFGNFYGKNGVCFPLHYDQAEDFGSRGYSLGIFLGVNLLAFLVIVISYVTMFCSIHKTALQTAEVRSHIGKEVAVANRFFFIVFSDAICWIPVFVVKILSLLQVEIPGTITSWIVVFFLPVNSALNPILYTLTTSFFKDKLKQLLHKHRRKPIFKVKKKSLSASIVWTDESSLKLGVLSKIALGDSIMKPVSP
Excerpt: Therefore, we examined the capacity of the identified human RXFP2 agonists to activate murine RXFP2. […] The observed difference between CRE-luciferase reporter assays with human and mouse RXFP2 might be due to a lower expression of the receptor in transiently transfected mouse RXFP2 cells compared to the stably transfected human RXFP2 cell line.
HEK293T-CRE-Luc cells express luciferase under the control of the cAMP response element (CRE), which allows for indirect measurement of intracellular cAMP accumulation. HEK293T-CRE-Luc cells were stably transfected with human RXFP2 (HEK-CRE-Luc-RXFP2) or transiently transfected as above with mouse Rxfp2 (HEK-CRE-Luc-Rxfp2). HEK-CRE-Luc-RXFP2 and HEK-CRE-Luc-Rxfp2 cells were seeded at 15,000 and 30,000 cells per well, respectively, in 96-well plates using serum-free DMEM medium and incubated overnight at 37 °C, 5% CO2. After 18 h, cells were treated with a titration of compound, a titration of INSL3, 5 μM forskolin or DMSO vehicle. After treatment, cells were incubated for 3 h at 37 °C, 5% CO2. […] Plates were incubated for 40 min at room temperature protected from light and the luciferase output was read on a CLARIOstar plate reader. […]
Results are expressed as mean ± SEM of 3 independent experim ents. […]

[1] = system: chimera RXFP2-1 (extracellular domain of RXFP2, transmembrane domain of RXFP1); assay: HTRF cAMP assay in HEK293T cells transiently transfected with chimera RXFP2-1; format: cell-based, human
Description: Fig. 2 6641 is an allosteric agonist of RXFP2. a HEK-RXFP2 cells co-treated with serial dilutions of INSL3 B dimer antagonist and 30 nM INSL3 or 0.28 µM 6641. HTRF cAMP dose-response inhibition curves were normalized to activity without antagonist co-treatment as 0% inhibition. b HTRF cAMP assay in HEK293T cells transiently transfected with WT or chimeric receptors. Chimera RXFP2-1 contains the extracellular domain of RXFP2 and the transmembrane domain of RXFP1, while chimera RXFP1-2 contains the extracellular domain of RXFP1 and the transmembrane domain of RXFP2. For each receptor, cAMP response induced by INSL3 and 6641 was normalized to FSK (2 µM) as 100% efficacy and DMSO vehicle as 0% efficacy. Emax and EC50 were calculated using four parameter nonlinear fit dose-response curves. Results are expressed as mean ± SEM of 3 independent experiments. Diagrams of the chimeric receptors were produced using GPCRdb.org[58], [59].
Complementary RXFP2-1 and RXFP1-2 chimeric receptors were used to further investigate the involvement of the RXFP2 extracellular and transmembrane domains on 6641 activity. RXFP2-1 has the extracellular domain of RXFP2 and transmembrane domain of RXFP1, and RXFP1-2 is its complement.
The HTRF Gs dynamic cAMP assay kit (CisBio, Bedford, MA) was used to measure intracellular cAMP accumulation in HEK293T cells (ATCC, Manassas, VA)[56]. […] The cell stock was verified mycoplasma free and authenticated by ATCC. Transient transfection was accomplished by treating cells in a 6-well plate with a mixture of 2 μg plasmid and 6 μL Lipofectamine 2000 (Invitrogen, Waltham, MA) per manufacturer’s protocol and incubating overnight. For cAMP measurement in 96-well format, HEK293T cells stably transfected with human RXFP2 (HEK-RXFP2), human RXFP1 (HEK-RXFP1), mouse Rxfp1 (HEK-Rxfp1) or transiently transfected with human RXFP1-RXFP2 chimeric receptors were seeded between 7500 and 30,000 cells per well, depending on cell line responsiveness, in serum-free DMEM medium and incubated overnight at 37 °C, 5% CO2. After 18 h, cells were treated with a titration of compound, 2 μM forskolin, or DMSO vehicle. Control wells were also treated with a titration of INSL3 (Phoenix Pharmaceuticals, Burlingame, CA) or human recombinant relaxin 2 (Peprotech, Cranbury, NJ). For the RXFP2 antagonist experiment, cells were co-treated with 0.28 μM compound or 30 nM INSL3 and a titration of the INSL3 B dimer antagonist[38],[39]. For the INSL3 allosteric modulation experiment, cells were co-treated with 0.025, 0.0025, or 0.00025 μM of compound and a titration of INSL3. […] Plates were incubated for 1 h at room temperature and the signal was read on a CLARIOstar plate reader (BMG Labtech, Ortenberg, Germany) at 665 and 620 nm emission wavelengths.

human RXFP4 = target: T2, human RXFP4 (Homo sapiens, UniProt Q8TDU9); assay: GloSensor cAMP assay in RXFP4 transiently transfected HEK293T cells; format: cell-based; settings: for RLU (cAMP, raw): RXFP4, 0.1 µM isoproterenol, replicates (1)-(4)
T2 construct: host or cells: HEK293T (transient)
T2 sequence (Q8TDU9 whole entry): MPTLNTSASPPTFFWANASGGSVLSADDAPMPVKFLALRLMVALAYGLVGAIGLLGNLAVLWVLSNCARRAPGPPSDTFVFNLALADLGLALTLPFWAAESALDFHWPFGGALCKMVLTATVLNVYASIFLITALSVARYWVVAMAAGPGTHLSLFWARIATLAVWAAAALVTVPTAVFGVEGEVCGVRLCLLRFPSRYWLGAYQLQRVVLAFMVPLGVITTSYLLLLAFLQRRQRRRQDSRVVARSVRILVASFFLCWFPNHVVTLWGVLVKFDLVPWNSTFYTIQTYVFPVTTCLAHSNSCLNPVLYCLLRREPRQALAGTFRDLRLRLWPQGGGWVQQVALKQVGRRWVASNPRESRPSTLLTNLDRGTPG

**Q.** Which activation at 0.0251 µM (mouse RXFP2; mouse RXFP2, Log [M] -7.60, experiments (1)-(3), read-out: % Eff (CRE-luciferase)) does the source give for `O=C1Nc2ccc(-c3cc(C(F)(F)F)cc(C(F)(F)F)c3)cc2C(=O)N2CCN(C(=O)COc3ccc(OC(F)(F)F)cc3I)C[C@@H]12` [compound 6641] here?
**A.** 28.9%

**Q.** What about the “agonism of mouse RXFP2 in CRE-luciferase reporter assay” value (mouse RXFP2; transiently transfected cells) of the same molecule?
**A.** activate the mouse RXFP2 receptor; also recorded: full agonist

**Q.** What about the “EC50 (1)-(3)” value ([1]; 6641, individual experiments) of the same molecule?
**A.** Inactive

**Q.** And the “EC50 (AVERAGE)” value ([1]; 6641, mean of 3)?
**A.** Inactive

**Q.** And the “Emax (1)-(3)” value ([1]; individual experiments, FSK (2 µM) = 100% efficacy)?
**A.** Inactive

**Q.** And the “Emax (AVERAGE)” value ([1]; mean (± SEM) of 3, FSK (2 µM) = 100% efficacy)?
**A.** Inactive; also recorded: did not stimulate cAMP production

**Q.** And the “RLU (cAMP, raw)” value (human RXFP4; Log [M] -4.52)?
**A.** 2463.26 RLU and 2323.36 RLU and 2574.77 RLU and 2436.25 RLU

**Q.** What about the “RLU (cAMP, raw)” value (human RXFP4; Log [M] -5) of the same molecule?
**A.** 3185.64 RLU and 3376.11 RLU and 2670.35 RLU and 2223.62 RLU

**Q.** And the “RLU (cAMP, raw)” value (human RXFP4; Log [M] -5.52)?
**A.** 2765.92 RLU and 2530.44 RLU and 2513.13 RLU and 2428.63 RLU

**Q.** And the “RLU (cAMP, raw)” value (human RXFP4; Log [M] -6)?
**A.** 3247.28 RLU and 3052.66 RLU and 2557.45 RLU and 2549.14 RLU

**Q.** And the “RLU (cAMP, raw)” value (human RXFP4; Log [M] -6.52)?
**A.** 2853.88 RLU and 2734.06 RLU and 2619.79 RLU and 2767.31 RLU

**Q.** And the “RLU (cAMP, raw)” value (human RXFP4; Log [M] -7)?
**A.** 2986.17 RLU and 3107.38 RLU and 2961.24 RLU and 2947.39 RLU

**Q.** What about the “RLU (cAMP, raw)” value (human RXFP4; Log [M] -7.52) of the same molecule?
**A.** 3270.14 RLU and 3165.55 RLU and 2781.16 RLU and 2887.13 RLU

**Q.** And the “RLU (cAMP, raw)” value (human RXFP4; Log [M] -8)?
**A.** 3594.97 RLU and 2898.21 RLU and 2737.53 RLU and 2621.17 RLU

**Q.** What about the “RLU (cAMP, raw)” value (human RXFP4; Log [M] -8.52) of the same molecule?
**A.** 2962.83 RLU and 3046.77 RLU and 3010.47 RLU and 2788.15 RLU

**Q.** What about the “RLU (cAMP, raw)” value (human RXFP4; Log [M] -9) of the same molecule?
**A.** 3689.54 RLU and 3613.16 RLU and 3120.12 RLU and 2641.44 RLU

**Q.** And the “RLU (cAMP, raw)” value (human RXFP4; Log [M] -9.52)?
**A.** 3253.97 RLU and 3351.52 RLU and 2965.85 RLU and 3151.88 RLU

**Q.** What about the “RLU (cAMP, raw)” value (human RXFP4; Log [M] -10) of the same molecule?
**A.** 3784.82 RLU and 3051.3 RLU and 3541.33 RLU and 3042.99 RLU

**Q.** What about the “RLU (cAMP, raw)” value (human RXFP4; Log [M] -10.52) of the same molecule?
**A.** 2937.88 RLU and 2859.99 RLU and 3018.03 RLU and 2959.05 RLU

**Q.** And the “RLU (cAMP, raw)” value (human RXFP4; Log [M] -11)?
**A.** 3244.89 RLU and 3354.54 RLU and 2788.9 RLU and 3100.46 RLU

**Q.** What about the “RLU (cAMP, raw)” value (human RXFP4; Log [M] -11.52) of the same molecule?
**A.** 3393.86 RLU and 2984 RLU and 2869.06 RLU and 2844.86 RLU

**Q.** And the “RLU (cAMP, raw)” value (human RXFP4; Log [M] -12)?
**A.** 3689.54 RLU and 3235.82 RLU and 3343.96 RLU and 2573.39 RLU

**Q.** What about the “activation of RXFP4 (cAMP inhibition)” value (human RXFP4; cAMP induced by 0.1 µM isoproterenol) of the same molecule?
**A.** does not activate
